# Results published in ChEMBL document CHEMBL1141439, “An antiproliferative bis-prenylated quinone from the New Zealand brown alga Perithalia capillaris” (J Nat Prod, 2007).
# System: HL-60
# Assay: Antiproliferative activity against human HL60 cells
# Type: functional, cell-based
row,IC50,SMILES
1,5.6 µM,C=CC(C)(C)c1cc2c(cc1O)C=CC(C)(C)O2
2,2.7 µM,C=CC(C)(C)c1ccc(O)c(CC=C(C)C)c1
3,0.34 µM,C=CC(C)(C)C1=CC(=O)C(CC=C(C)C)=CC1=O
4,73 µM,O=C1C2=C(C=CC(C(=O)O)N2)C(=O)C2=C1NCCS2(=O)=O (stereo not drawn)

# System: Neutrophil
# Assay: Inhibition of superoxide production in human neutrophils
# Type: functional, cell-based
row,IC50,SMILES
1,238 µM,C=CC(C)(C)c1cc2c(cc1O)C=CC(C)(C)O2
2,29 µM,C=CC(C)(C)c1ccc(O)c(CC=C(C)C)c1
3,2.1 µM,C=CC(C)(C)C1=CC(=O)C(CC=C(C)C)=CC1=O
4,1.5 µM,O=C1C2=C(C=CC(C(=O)O)N2)C(=O)C2=C1NCCS2(=O)=O (stereo not drawn)
